Source: patent US9499550B2 (BRISTOL-MYERS SQUIBB COMPANY, priority 2012, dated 2016)
Where two headings read alike, the source gives them in different places.

Tests used:
[1] = test system: HCV genotype 1b (Con1) replicon in HUH-7 cells; experiment: HCV replicon luciferase reporter assay, genotype 1b; format: cell-based; settings: Hepatitis C virus, Huh-7, 72 h, HCV genotype 1b replicon luciferase, 3 days incubation
Summary of the method: (§1)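 Replicon inhibition for both genotypes was measured as Renilla luciferase signal (EnduRen, 7.5 μM final, 2 h) after 3-day, 37° C exposure of replicon-bearing HUH-7 cells in 4% FCS DMEM, 0.5% DMSO. The 1b construct carries S1179I; the 1a H77 construct carries P1496L and S2204I. Twenty-point, 3-fold dilutions were fitted four-parametrically for EC50, and CC50 was taken from multiplexed Cell Titer-Blue.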

[2] = test system: HCV genotype 1a (H77 strain) replicon in HUH-7 cells; experiment: HCV replicon luciferase reporter assay, genotype 1a; format: cell-based; settings: Hepatitis C virus, Huh-7, 72 h, HCV genotype 1a replicon luciferase, 3 days incubation
Summary of the method: as §1

| SMILES | EC50 ([1]; read-out: LE_1b (EC50, range)) [nM] | EC50 ([2]; read-out: LE_1a (EC50, range)) [nM] | EC50 ([1]; read-out: LE_1b (EC50)) [nM] | EC50 ([2]; read-out: LE_1a (EC50)) [nM] |
| --- | --- | --- | --- | --- |
| C[C@@H]1CC/C=C\[C@@H]2C[C@@]2(C(=O)NS(=O)(=O)C2(C)CC2)NC(=O)[C@@H]2C[C@@H](Oc3nccc4c5c(ccc34)N(C)CCO5)CN2C(=O)[C@@H](NC(=O)OC(C)(C)C)[C@H](C)C1 [Compound 5294, tert-butyl ((2R,6S,7R,9R,13aS,14aR,16aS,Z)-7,9-dimethyl-2-((4-methyl-3,4-dihydro-2H-[1,4]oxazino[2,3-f]isoquinolin-7-yl)oxy)-14a-(((1-methylcyclopropyl)sulfonyl)carbamoyl)-5,16-dioxo-1,2,3,5,6,7,8,9,10,11,13a,14,14a,15,16,16a-hexadecahydrocyclopropa[e]pyrrolo[1,2-a][1,4]diazacyclopentadecin-6-yl)carbamate] | < 5.46 | < 5.46 |  |  |
| C[C@H]1CC/C=C\[C@@H]2C[C@@]2(C(=O)NS(=O)(=O)C2(C)CC2)NC(=O)[C@@H]2C[C@@H](Oc3nccc4c5c(ccc34)N(C)CCO5)CN2C(=O)[C@@H](NC(=O)OC(C)(C)C(F)(F)F)[C@H](C)C1 [Compound 5295, 1,1,1-trifluoro-2-methylpropan-2-yl((2R,6S,7R,9S,13aS,14aR,16aS,Z)-7,9-dimethyl-2-((4-methyl-3,4-dihydro-2H-[1,4]oxazino[2,3-f]isoquinolin-7-yl)oxy)-14a-(((1-methylcyclopropyl)sulfonyl)carbamoyl)-5,16-dioxo-1,2,3,5,6,7,8,9,10,11,13a,14,14a,15,16,16a-hexadecahydrocyclopropa[e]pyrrolo[1,2-a][1,4]diazacyclopentadecin-6-yl)carbamate] | < 5.46 | 4.82 to 103 |  |  |
| C[C@@H]1CC/C=C\[C@@H]2C[C@@]2(C(=O)NS(=O)(=O)C2(C)CC2)NC(=O)[C@@H]2C[C@@H](Oc3nccc4c5c(ccc34)N(C)CCO5)CN2C(=O)[C@@H](NC(=O)OC(C)(C)C(F)(F)F)[C@H](C)C1 [Compound 5296, 1,1,1-trifluoro-2-methylpropan-2-yl((2R,6S,7R,9R,13aS,14aR,16aS,Z)-7,9-dimethyl-2-((4-methyl-3,4-dihydro-2H-[1,4]oxazino[2,3-f]isoquinolin-7-yl)oxy)-14a-(((1-methylcyclopropyl)sulfonyl)carbamoyl)-5,16-dioxo-1,2,3,5,6,7,8,9,10,11,13a,14,14a,15,16,16a-hexadecahydrocyclopropa[e]pyrrolo[1,2-a][1,4]diazacyclopentadecin-6-yl)carbamate] | < 5.46 | < 5.46 |  |  |
| [2H]C([2H])([2H])C(OC(=O)N[C@@H]1C(=O)N2C[C@H](Oc3nccc4c5c(ccc34)N(C)CCO5)C[C@H]2C(=O)N[C@]2(C(=O)NS(=O)(=O)C3(C)CC3)C[C@H]2/C=C\CC[C@H](C)C[C@H]1C)(C([2H])([2H])[2H])C(F)(F)F [Compound 5297, 1,1,1,3,3,3-hexadeutero-2-(trifluoromethyl)propan-2-yl((2R,6S,7R,9S,13aS,14aR,16aS,Z)-7,9-dimethyl-2-((4-methyl-3,4-dihydro-2H-[1,4]oxazino[2,3-f]isoquinolin-7-yl)oxy)-14a-(((1-methylcyclopropyl)sulfonyl)carbamoyl)-5,16-dioxo-1,2,3,5,6,7,8,9,10,11,13a,14,14a,15,16,16a-hexadecahydrocyclopropa[e]pyrrolo[1,2-a][1,4]diazacyclopentadecin-6-yl)carbamate] | < 5.46 | 4.82 to 103 | 3.16 | 7.06 |
| [2H]C([2H])([2H])C(OC(=O)N[C@@H]1C(=O)N2C[C@H](Oc3nccc4c5c(ccc34)N(C)CCO5)C[C@H]2C(=O)N[C@]2(C(=O)NS(=O)(=O)C3(C)CC3)C[C@H]2/C=C\CC[C@@H](C)C[C@H]1C)(C([2H])([2H])[2H])C(F)(F)F [Compound 5298, 1,1,1,3,3,3-hexadeutero-2-(trifluoromethyl)propan-2-yl((2R,6S,7R,9R,13aS,14aR,16aS,Z)-7,9-dimethyl-2-((4-methyl-3,4-dihydro-2H-[1,4]oxazino[2,3-f]isoquinolin-7-yl)oxy)-14a-(((1-methylcyclopropyl)sulfonyl)carbamoyl)-5,16-dioxo-1,2,3,5,6,7,8,9,10,11,13a,14,14a,15,16,16a-hexadecahydrocyclopropa[e]pyrrolo[1,2-a][1,4]diazacyclopentadecin-6-yl)carbamate] | < 5.46 | < 5.46 |  |  |
| C[C@H]1CC/C=C\[C@@H]2C[C@@]2(C(=O)NS(=O)(=O)C2(C)CC2)NC(=O)[C@@H]2C[C@@H](Oc3nccc4c5c(ccc34)N(C)CCO5)CN2C(=O)[C@@H](NC(=O)O[C@@H]2C[C@@H]3C[C@@H]3C2)[C@H](C)C1 [Compound 5299, (1R,3r,5S)-bicyclo[3.1.0]hexan-3-yl((2R,6S,7R,9S,13aS,14aR,16aS,Z)-7,9-dimethyl-2-((4-methyl-3,4-dihydro-2H-[1,4]oxazino[2,3-f]isoquinolin-7-yl)oxy)-14a-(((1-methylcyclopropyl)sulfonyl)carbamoyl)-5,16-dioxo-1,2,3,5,6,7,8,9,10,11,13a,14,14a,15,16,16a-hexadecahydrocyclopropa[e]pyrrolo[1,2-a][1,4]diazacyclopentadecin-6-yl)carbamate] | < 5.46 | < 5.46 |  |  |
| C[C@@H]1CC/C=C\[C@@H]2C[C@@]2(C(=O)NS(=O)(=O)C2(C)CC2)NC(=O)[C@@H]2C[C@@H](Oc3nccc4c5c(ccc34)N(C)CCO5)CN2C(=O)[C@@H](NC(=O)O[C@@H]2C[C@@H]3C[C@@H]3C2)[C@H](C)C1 [Compound 5300, (1R,3r,5S)-bicyclo[3.1.0]hexan-3-yl((2R,6S,7R,9R,13aS,14aR,16aS,Z)-7,9-dimethyl-2-((4-methyl-3,4-dihydro-2H-[1,4]oxazino[2,3-f]isoquinolin-7-yl)oxy)-14a-(((1-methylcyclopropyl)sulfonyl)carbamoyl)-5,16-dioxo-1,2,3,5,6,7,8,9,10,11,13a,14,14a,15,16,16a-hexadecahydrocyclopropa[e]pyrrolo[1,2-a][1,4]diazacyclopentadecin-6-yl)carbamate] | < 5.46 | < 5.46 |  |  |
| C[C@H]1CC/C=C\[C@@H]2C[C@@]2(C(=O)NS(=O)(=O)C2(C)CC2)NC(=O)[C@@H]2C[C@@H](Oc3nccc4c5c(ccc34)N(C)CCO5)CN2C(=O)[C@@H](NC(=O)NC(C)(C)C)[C@H](C)C1 [Compound 5301, (2R,6S,7R,9S,13aS,14aR,16aS,Z)-6-(3-(tert-butyl)ureido)-7,9-dimethyl-2-((4-methyl-3,4-dihydro-2H-[1,4]oxazino[2,3-f]isoquinolin-7-yl)oxy)-N-((1-methylcyclopropyl)sulfonyl)-5,16-dioxo-1,2,3,5,6,7,8,9,10,11,13a,14,14a,15,16,16a-hexadecahydrocyclopropa[e]pyrrolo[1,2-a][1,4]diazacyclopentadecine-14a-carboxamide] | < 5.46 | 4.82 to 103 |  |  |
| C[C@@H]1CC/C=C\[C@@H]2C[C@@]2(C(=O)NS(=O)(=O)C2(C)CC2)NC(=O)[C@@H]2C[C@@H](Oc3nccc4c5c(ccc34)N(C)CCO5)CN2C(=O)[C@@H](NC(=O)NC(C)(C)C)[C@H](C)C1 [Compound 5302, (2R,6S,7R,9R,13aS,14aR,16aS,Z)-6-(3-(tert-butyl)ureido)-7,9-dimethyl-2-((4-methyl-3,4-dihydro-2H-[1,4]oxazino[2,3-f]isoquinolin-7-yl)oxy)-N-((1-methylcyclopropyl)sulfonyl)-5,16-dioxo-1,2,3,5,6,7,8,9,10,11,13a,14,14a,15,16,16a-hexadecahydrocyclopropa[e]pyrrolo[1,2-a][1,4]diazacyclopentadecine-14a-carboxamide] | < 5.46 | < 5.46 |  |  |
| C[C@H]1CC/C=C\[C@@H]2C[C@@]2(C(=O)NS(=O)(=O)C2(C)CC2)NC(=O)[C@@H]2C[C@@H](Oc3nccc4c5c(ccc34)N(C)CCO5)CN2C(=O)[C@@H](NC(=O)c2ccc(N(C)C)cc2)[C@H](C)C1 [Compound 5303, (2R,6S,7R,9S,13aS,14aR,16aS,Z)-6-(4-(dimethylamino)benzamido)-7,9-dimethyl-2-((4-methyl-3,4-dihydro-2H-[1,4]oxazino[2,3-f]isoquinolin-7-yl)oxy)-N-((1-methylcyclopropyl)sulfonyl)-5,16-dioxo-1,2,3,5,6,7,8,9,10,11,13a,14,14a,15,16,16a-hexadecahydrocyclopropa[e]pyrrolo[1,2-a][1,4]diazacyclopentadecine-14a-carboxamide] | < 5.46 | 4.82 to 103 |  |  |
| C[C@@H]1CC/C=C\[C@@H]2C[C@@]2(C(=O)NS(=O)(=O)C2(C)CC2)NC(=O)[C@@H]2C[C@@H](Oc3nccc4c5c(ccc34)N(C)CCO5)CN2C(=O)[C@@H](NC(=O)c2ccc(N(C)C)cc2)[C@H](C)C1 [Compound 5304, (2R,6S,7R,9R,13aS,14aR,16aS,Z)-6-(4-(dimethylamino)benzamido)-7,9-dimethyl-2-((4-methyl-3,4-dihydro-2H-[1,4]oxazino[2,3-f]isoquinolin-7-yl)oxy)-N-((1-methylcyclopropyl)sulfonyl)-5,16-dioxo-1,2,3,5,6,7,8,9,10,11,13a,14,14a,15,16,16a-hexadecahydrocyclopropa[e]pyrrolo[1,2-a][1,4]diazacyclopentadecine-14a-carboxamide] | < 5.46 | < 5.46 |  |  |
